US8691980B2 (National Taipei University of Technology, priority 2011, dated 2014)

Assays:
[1] = molecular target: T1, Salicylate hydroxylase (SHL) (Pseudomonas putida, UniProt P23262); test: Effect of salicylic acid on the fluorescence intensity (SHL, Compound C, NADH); assay type: biochemical; details: salicylic acid added to SHL, Compound C and NADH, aerobic; fluorescence decreased with increasing concentration
T1 construct: purchased GDS Technology Inc. (USA)
T1 sequence (P23262 1-434): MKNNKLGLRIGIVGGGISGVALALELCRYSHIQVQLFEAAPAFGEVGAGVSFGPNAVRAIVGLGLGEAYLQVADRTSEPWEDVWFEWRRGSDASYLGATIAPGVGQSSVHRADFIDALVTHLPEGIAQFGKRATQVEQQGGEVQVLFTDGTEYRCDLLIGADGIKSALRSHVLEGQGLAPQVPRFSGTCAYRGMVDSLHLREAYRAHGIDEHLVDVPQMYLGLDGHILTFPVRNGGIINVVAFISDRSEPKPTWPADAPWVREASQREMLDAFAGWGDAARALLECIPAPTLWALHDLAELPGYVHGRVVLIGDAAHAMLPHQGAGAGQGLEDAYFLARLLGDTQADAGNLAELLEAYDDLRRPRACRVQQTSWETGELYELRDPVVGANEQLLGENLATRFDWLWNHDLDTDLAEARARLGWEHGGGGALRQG
Procedure: (§1) ^1H NMR and ^13C NMR spectrums were obtained by Bruker AMX-500 spectrophotometer wherein chemical shift values were expressed in ppm relative to tetramethylsilane (δ unit); fluorescence intensity was measured by using a fluorescence-grade quartz cuvette and a spectrofluorometer, i.e. Horiba Jobin Yvon Fluoromax-4. The other chemicals are purchased from Acros, Aldrich, TCI or Sigma Chemical corporations and directly used without purification. […] Chem. Soc. Jp. 1985, 58, 731; the entire contents thereof are incorporated herein by reference. SHL is obtained from GDS Technology Inc. (USA). D-3-hydroxybutyric acid dehydrogenase is purchased from TOYOBO (Product Code: HBD-301). Cholesterol dehydrogenase is purchased from Genzyme Corp. All measurements were performed in 50 mM Tris-HCl (TRIZMA Base, Tris, pH8). The latent fluorophore is synthesized in DMSO and should be added to a Tris-HCl buffer before use to make the concentration of DMSO not exceed 0.1% (v/v).

[2] = cited from earlier work
[3] = molecular target: T1, Salicylate hydroxylase (SHL); test: Fluorescence profile of the latent fluorophore in the presence of SHL and NADH, aerobic; assay type: biochemical
Procedure: as §1
(§2) The fluorescence profile of Compound C was analyzed in the presence of SHL and NADH in an aerobic environment. […] However, in case that Compound C was kept in a solution containing both 1 unit of SHL and 1 mM NADH at 37 °C, the fluorescence intensity of Compound B increases 57 times in 90 minutes, as shown in FIG. 1 (dotted line representing the baseline).

[4] = Latent fluorophore kept in SHL alone, NADH alone or Tris-HCl buffer (background fluorescence / stability); assay type: physicochemical; details: 20 μM
Procedure: as §1, §2

[5] = test system: SHL and 3-hydroxybutyric acid dehydrogenase; test: Two-enzyme system: SHL and 3-hydroxybutyric acid dehydrogenase; assay type: biochemical; details: Compound C 10 μM; substrate 3-hydroxybutyric acid
Procedure: as §1, with “(v/v). […]” for “(v/v).”
(§3) The measurement of fluorescence was performed at an excitation wavelength λex of 500 nm and an emission wavelength λem of 595 nm. […] The measured fluorescence intensity after subtraction of baseline (concentration of the biochemical molecule to be tested is zero) intensity therefrom was plotted versus the concentration of the biochemical molecule to be tested.

[6] = test system: SHL and cholesterol dehydrogenase; test: Two-enzyme system: SHL and cholesterol dehydrogenase; assay type: biochemical; details: Compound C 10 μM
Procedure: as §1, with “(v/v). […]” for “(v/v).”
as §3

SMILES	conversion of Compound C to a fluorogenic compound [1]	blood level that may be fatal [2]	time until fluorescence could be detected ([3]; 1 unit SHL and 1 mM NADH added to Tris-HCl buffer containing Compound C)	increase of fluorescence intensity ([3]; Compound C in solution with 1 unit SHL and 1 mM NADH, 37 °C, in 90 minutes) [times]	fluorescence intensity, only SHL added ([3]; only SHL added to Tris-HCl buffer containing Compound C, after 10 minutes)	fluorescence intensity, kept in solution of NADH alone ([4]; kept even for several months)	fluorescence intensity, kept in solution of SHL alone ([4]; kept even for several months)	fluorescence intensity, kept in Tris-HCl buffer solution ([4]; pH 8, kept even for several months)	fluorescence intensity after addition of the substrate [5]	fluorescence intensity after addition of the substrate [6]
O=C(O)c1ccccc1O [salicylic acid]	inhibited	above 4.3 mM								
N#Cc1c(-c2nc3ccccc3s2)c(=O)oc2cc(OCc3ccc(C(=O)O)c(O)c3)ccc12 [Compound C]			within several seconds	57	near the baseline	near the baseline	near the baseline	near the baseline	significantly increased	significantly increased
